Measured values: patent US12642860B2, “Filamentous nanostructures and their use for treatment of pulmonary disease” (THE JOHNS HOPKINS UNIVERSITY, priority 2019, dated 2026)
Non-standard residues stand in square brackets, D forms with d. Residues, ends and D or L forms follow the SMILES beside them. ξ: configuration not given here. *: point of attachment. X2 = CCCC1O[C@@H]2C[C@H]3[C@@H]4CCC5=CC(=O)C=C[C@]5(C)[C@H]4[C@@H](O)CC3(C)C2(C(=O)COC(=O)OCCS*)O1; Lauroyl = CCCCCCCCCCCC(=O)*; X1 = COCCOCCOCCOCCOCCC(=O)*; ξE = NC(CCC(=O)O)C(=O)O; ξQ = NC(=O)CCC(N)C(=O)O; ξD = NC(CC(=O)O)C(=O)O; ξL = CC(C)CC(N)C(=O)O; ξK = NCCCCC(N)C(=O)O; ξV = CC(C)C(N)C(=O)O; ξP = O=C(O)C1CCCN1

Key:
Type in all cases: physicochemical
[1] = TEM morphology of filaments after jet nebulization; details: 500 μM, jet nebulization 10 min, mist and reservoir
From the text: (§1) Since the supramolecular filament compositions are several microns long and are formed through non-covalent interactions, their structural integrity may be influenced by a number of factors during nebulization, such as agitation and aerosol formation. Thus, we first assessed the structural stability of these systems while traveling in aerosol droplets generated by a jet nebulizer. Nebulizers are commonly employed medical devices for producing liquid aerosol droplets containing therapeutics via high velocity airflow through the device nozzle. Droplets very large in diameter impact baffles and/or the walls of the nebulizer and are recycled back into the device's reservoir, but droplets small enough to circumvent these barriers (typically ranging in diameter from 1 to 10 μm) exit the device as a respirable aerosol. Therefore, we characterized two groups of structures after nebulization: the exiting mist and the leftover solution in the reservoir. Filament compositions in solutions diluted down to 500 µM of the different PAs were loaded into a jet nebulizer and nebulized for 10 minutes, and the mist and leftover reservoir solutions were collected and subsequently analyzed with TEM. […] For both the nebulized and reservoir populations, we see the introduction of short bundled fibrils, worm-like micelles, and spherical micelles (spherical micelles depicted in FIG. 7).
After encapsulation, we used TEM imaging to confirm self-assembly of the system into filamentous nanostructures. […] Spherical micelles are still observed, but the fibril and worm-like structures are not. […] In terms of delivering therapeutics in an aerosol, this presents an effective strategy for improving structural stability of supramolecular peptide-based assemblies during nebulization.

[2] = Dynamic light scattering molar scattering rate during nebulization; details: measured every 2 min for 10 min nebulization
Description: We next investigated whether this filament breakdown was consistent over the course of a nebulization event. We measured the molar scattering rate of the filaments with dynamic light scattering (DLS) every 2 min for a total 10 min as a measure of assembly size, as larger filamentous assemblies will scatter light more strongly than smaller ones. The molar scattering rate represents the scattering rate normalized to the sample concentration and is used here, since the DLS software uses models for fitting spherical particles and our structures are anisotropic. […] In terms of delivering supramolecular filament systems with a jet nebulizer for treatment administration, the consistent filament breakdown over the course of a nebulization event is promising in regard to aerosol delivery, as the filaments are released reliably with a relatively uniform size drop over time from the device.

[3] = Circular dichroism of filaments before and after nebulization; details: for CD signal immediately after nebulization, mist / CD signal immediately after nebulization, reservoir: 500 μM, 10 min nebulization; for CD signal immediately after nebulization, mist: filaments collected in the mist; for CD signal immediately after nebulization, reservoir: filaments leftover in the reservoir; for CD signal 2 weeks after nebulization: same solutions aged additional 2 weeks at room temperature
Description: FIGS. 13A-13C show circular dichroism (CD) spectra of the supramolecular filament systems before and immediately after nebulization (solid lines) alongside the same solutions 2 weeks later (dashed lines). All filaments were nebulized at 500 µM for 10 min. Data given are mean spectra for each solution (n=3). (13A) EPA filaments before and after nebulization, showing preservation of β-sheet character during nebulization. (13B) OPA filaments before and after nebulization, showing retention of β-sheet character with a temporary increase in CD signal. (13C) KPA filaments before and after nebulization, showing a transition from β-sheet to random coil for the nebulization group and weakened β-sheet hydrogen bonding for the reservoir group.
While we were able to directly observe filament breakdown in terms of length, we investigated further the impact nebulization may have on the molecular packing of the PA monomers within the supramolecular filaments. FIG. 13 contains the representative circular dichroism (CD) spectra of the three filament systems before and after a 10 min nebulization event of both filaments that exit as mist and those leftover in the reservoir. EPA, OPA, and KPA filaments before nebulization show primarily β-sheet characteristic hydrogen bonding, as evidenced by a negative peak around 220 nm and a positive peak around 197 nm for each system. […] This slightly contrasts from the behavior observed for the EPA filaments and is likely attributed to the potential alignment of OEG chains of OPA from aerosol formation forces, which reduces steric repulsion between OPA monomers. […] This is corroborated by the morphologies observed for the KPA filaments after nebulization, as smaller worm-like micelles and spherical micelles were generated. The strength of the hydrogen-bonding network within the supramolecular filaments is evidently important in the maintenance and stabilization of β-sheet character after nebulization.
To gain insight into the thermodynamic stability of the new assembly states induced by nebulization, we analyzed the CD signal of the same filament solutions after nebulization after aging for an additional 2 weeks in solution at room temperature. […] Additionally, the shorter EPA and OPA filaments are still observed in the nebulized and reservoir groups with TEM imaging after 2 weeks (FIGS. 14 and 15). […] Since a transition back to β-sheet character is not observed for the nebulized group, it is likely that nebulization induces the formation of new metastable assemblies of the KPA monomers, which is corroborated by TEM images of the KPA filaments 2 weeks after nebulization, as the fibril, worm-like micelle, and spherical micelle structures are still observed (FIG. 16).

[4] = Contour length analysis of filaments in TEM images after jet nebulization; details: jet nebulization 10 min, mean±SD; for average contour length, exiting the nebulizer as a mist: nebulized mist population; for average contour length, leftover in the reservoir: reservoir population
From the text: FIGS. 12A-12F are contour length reduction analyses of (12A) EPA, (12B) OPA, and (12C) KPA filaments after nebulization, comparing the nebulized (red) and reservoir (blue) populations' size distributions (20 bins, 50 nm each). Nebulized populations measured shorter on average compared to the reservoir populations. Average contour lengths (μ) given as mean±SD alongside medians (M) for each population (****p<0.0001, two-tail unpaired t test; EPA: nN=316, nR=316; OPA: nN=311, nR=339; KPA: nN=377, nR=369). Dynamic light scattering measurements of (12D) EPA, (12E) OPA, and (12F) KPA over the course of a 10 min nebulization event as collected every 2 min, showing consistent filament breakdown over time. Data are normalized to molar scattering rate of filaments at t=0 min and given as mean±SD (p>0.05, two-way ANOVA, n=3).
as §1
Filaments before nebulization were not measured, as accurate contour lengths could not be determined, since the filaments are over several microns long. For all three systems, the nebulized population was measured to be on average shorter than its respective reservoir population. […] The EPA, OPA, and KPA filaments averaged around 287±147 nm, 174±103 nm, and 133±108 nm, respectively, exiting the nebulizer as a mist and around 360±177 nm, 206±88 nm, and 196±113 nm, respectively, leftover in the reservoir. For the KPA system, spherical micelles were omitted from this analysis as they bias the distribution representation toward non-filamentous structures.

[5] = Critical assembly concentration (CAC) by Nile Red assay; details: in water
From the text: FIGS. 17A-17C depict the critical assembly concentration (CAC) of (17A) EPA, (17B) OPA, and (17C) KPA molecules in water as measured from a Nile Red assay. A fluorescence intensity maximum is shifted from a wavelength of 660 nm to 635 nm as Nile Red dye becomes encapsulated within the supramolecular structures of the peptide amphiphiles (PAs). Blue line represents region of concentrations where Nile Red remains in solution; red line represents region where Nile Red is encapsulated. Data are given as mean±SD (n=3).
Therefore, we assessed the thermodynamic stability of each supramolecular filament system by measuring their critical assembly concentration (CAC) using a Nile Red assay. As shown in FIGS. 17A-C, the CAC values of EPA, OPA, and KPA were measured to be 1 μM, 1.9 μM, and 40 μM, respectively. Data from the Nile Red assay are given in full in FIG. 18. The differences in CAC between the different PAs are likely reflective of differences in electrostatic repulsion between the charged groups of EPA and KPA and steric effects with respect to the size of the OEG groups of the OPA molecule.^74 We find a direct correlation between the CAC value and nebulization stability of the supramolecular filaments with respect to nanostructure integrity and hydrogen bonding interactions. […] As the CAC value represents the propensity of the monomer units to aggregate in solution, increasing the strength of hydrophobic interactions alongside other non-covalent interactions through molecular engineering can result in lower CAC systems, and thus create supramolecular filament systems with enhanced stability during aerosol formation.

Compound	structure/morphology after nebulization (TEM) [1]	filament breakdown over time (molar scattering rate, DLS) [2]	CD signal immediately after nebulization, mist [3]	CD signal immediately after nebulization, reservoir [3]	CD signal 2 weeks after nebulization [3]	average contour length, exiting the nebulizer as a mist [4]	average contour length, leftover in the reservoir [4]	critical assembly concentration (CAC) [5] [µM]
CCCC1O[C@@H]2C[C@H]3[C@@H]4CCC5=CC(=O)C=C[C@]5(C)[C@H]4[C@@H](O)CC3(C)C2(C(=O)COC(=O)OCCSSC[C@H](NC(C)=O)C(=O)NC(C(=O)N[C@H](C(=O)NC(C(=O)NCC(=O)NCC(=O)NC(CCCCN)C(=O)NC(C(=O)NC(CC(C)C)C(=O)NC(CC(=O)O)C(=O)NCC(=O)NC(CCC(N)=O)C(=O)NC(CC(=O)O)C(=O)N2CCCC2C(N)=O)C(C)C)C(C)C)C(C)C)C(C)C)O1 (stereo partly shown) [CAB-0] (Ac-C(X2)[ξV]V[ξV]GG[ξK][ξV][ξL][ξD]G[ξQ][ξD][ξP]-NH2)	retention of filaments after a nebulization event with shortened length							
CCCCCCCCCCCC(=O)N[C@@H](Cc1ccc(O)cc1)C(=O)NC(C(=O)N[C@H](C(=O)NC(C(=O)NCC(=O)NCC(=O)N[C@@H](CCCCN)C(=O)NC(CCCCN)C(=O)N[C@@H](CCCCN)C(N)=O)C(C)C)C(C)C)C(C)C (stereo partly shown) [KPA] (Lauroyl-Y[ξV]V[ξV]GGK[ξK]K-NH2)	formation of different morphologies in both populations	consistent breakdown over the course of 10 min	secondary structure transition from β-sheet to random coil character	weakened β-sheet signal	continued to display the weakened β-sheet signal in the reservoir group and the random coil character of the nebulized group	~133±108 nm	~196±113 nm	40
CCCCCCCCCCCC(=O)N[C@@H](Cc1ccc(O)cc1)C(=O)NC(C(=O)N[C@H](C(=O)NC(C(=O)NCC(=O)NCC(=O)N[C@@H](CCC(=O)O)C(=O)NC(CCC(=O)O)C(=O)N[C@@H](CCC(=O)O)C(N)=O)C(C)C)C(C)C)C(C)C (stereo partly shown) [EPA] (Lauroyl-Y[ξV]V[ξV]GGE[ξE]E-NH2)	maintained their filamentous structure but a notable reduction in length was observed	consistent breakdown over the course of 10 min	slightly increased β-sheet signal	no change to their hydrogen bonding	maintained their β-sheet character	around 287±147 nm	around 360±177 nm	1
CCCCCCCCCCCC(=O)N[C@@H](Cc1ccc(O)cc1)C(=O)NC(C(=O)N[C@H](C(=O)NC(C(=O)NCC(=O)NCC(=O)N[C@@H](CCCCNC(=O)CCOCCOCCOCCOCCOC)C(=O)NC(CCCCNC(=O)CCOCCOCCOCCOCCOC)C(N)=O)C(C)C)C(C)C)C(C)C (stereo partly shown) [OPA] (Lauroyl-Y[ξV]V[ξV]GGK(X1)[ξK](X1)-NH2)	shorter filaments are produced	consistent breakdown over the course of 10 min	increased β-sheet signals	increased β-sheet signals	maintained their β-sheet character	~174±103 nm	~206±88 nm	1.9
